Measurements: US6319702A, “Nucleic acids encoding mutant human carboxypeptidase A enzymes” (Glaxo Wellcome, Inc., priority 1993, dated 2001)
Read-outs that look alike come from different tables or passages of the source.

Experiments:
[1] = Stability and biodistribution of prodrugs in vivo (HPLC of plasma and tissues); set-up: species or system mice (CD-1 nude; BALB/C where indicated); conditions: for concentration of prodrug in cecum / concentration of prodrug in feces / concentration of prodrug in kidney / concentration of prodrug in large intestine / concentration of prodrug in liver / concentration of prodrug in small intestine / concentration of prodrug in spleen / concentration of prodrug in tumor / remaining at 0.5 h / remaining at 2 h / concentration at 0.5 h / concentration at 2 h: 50 mg/kg i.p. or i.v., CD-1 nude mice; for remaining at 0.5 h / remaining at 2 h / concentration at 0.5 h / concentration at 2 h: mouse; for concentration at 0.5 h / concentration at 2 h: read-out: concentration of prodrug in plasma
[2] = target: T1, wild type human carboxypeptidase A1 (Homo sapiens, UniProt P15085); assay: Enzyme kinetics of prodrugs with wild type human carboxypeptidase A1 (coupled assay); type: biochemical
T1 sequence (P15085 111-419): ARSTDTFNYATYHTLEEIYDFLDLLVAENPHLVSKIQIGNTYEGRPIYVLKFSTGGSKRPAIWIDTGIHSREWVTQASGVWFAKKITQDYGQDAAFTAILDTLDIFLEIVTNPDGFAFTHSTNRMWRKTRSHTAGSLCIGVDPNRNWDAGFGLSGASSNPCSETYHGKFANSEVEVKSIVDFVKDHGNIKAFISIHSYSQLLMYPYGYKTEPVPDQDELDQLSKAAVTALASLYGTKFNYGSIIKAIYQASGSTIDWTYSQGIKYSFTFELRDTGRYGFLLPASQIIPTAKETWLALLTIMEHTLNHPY
Description: (§1) As indicated herein, the in vivo stable prodrug of the present invention should be a better substrate for a mutant enzyme than the corresponding wild type enzyme in order for the stable prodrug to be activated selectively at the tumour. […] The most relevant kinetic constant in the table is the kcat/Km, which provides an estimate of the second order rate constant for the enzyme catalyzed conversion of prodrug to methotrexate. Thus, the larger the kcat/Km, the more efficient the enzyme with a particular substrate. […] Thus, the single mutation at 268 from thr to gly converted very poor substrates in the wild type enzyme to excellent substrates in the mutant enzyme. […] Thus, the compounds are much better substrates for the mutant enzyme than the wild type enzyme which permits very specific tumor targeted activation of the nontoxic, stable prodrug to the active agent.
(§2) Kinetics were determined by a modification of the coupled assay of Kuefner, et al (1989) Biochemistry 28 2288-2297 in which the product MTX is converted by excess carboxypeptidase G to the pteroate of MTX. In this assay the reaction is followed spectrophotometrically at 315 nm; at this wavelength the change in molar absorbtivity for the coupled reaction was determined to be 9.57 mM^-1 cm^-1. Assays were performed at 25° C. in 25 mM tris-HCl, 100 mM NaCl, pH 7.4. Prodrugs were preincubated at 25° C. with buffer and 17 milliunits of Sigma #C-9658 carboxypeptidase G in 1 ml total volume. Assay was initiated with carboxypeptidase A or the appropriate mutant. Initial velocities were obtained, and standard Michaelis-Menten calculations were used to determine kinetic constants (in Biochemistry, Lehninger, A. L. 1970, Worth Publishers, Inc, NY).

268ala = assay: Enzyme kinetics of prodrugs with 268ala mutant of human CPA1 (coupled assay); type: biochemical; conditions: 25° C., pH 7.4
Description: as §1, §2

268gly = assay: Enzyme kinetics of prodrugs with 268gly mutant of human CPA1 (coupled assay); type: biochemical; conditions: 268gly; 25° C., pH 7.4
Description: as §1, §2

[3] = cecum, 50 mg/kg, CECUM, 30 min, read-out: stability: percentage of material observed as intact prodrug, cecum
[4] = cecum, 50 mg/kg, CECUM, 120 min, read-out: stability: percentage of material observed as intact prodrug, cecum
[5] = kidney, 50 mg/kg, KIDNEY, 30 min, read-out: stability: percentage of material observed as intact prodrug, kidney
[6] = kidney, 50 mg/kg, KIDNEY, 120 min, read-out: stability: percentage of material observed as intact prodrug, kidney
[7] = large intestine, 50 mg/kg, LARGE INTESTINE, 30 min, read-out: stability: percentage of material observed as intact prodrug, large intestine
[8] = large intestine, 50 mg/kg, LARGE INTESTINE, 120 min, read-out: stability: percentage of material observed as intact prodrug, large intestine
[9] = liver, 50 mg/kg, LIVER, 30 min, read-out: stability: percentage of material observed as intact prodrug, liver (converted)
[10] = liver, 50 mg/kg, LIVER, 120 min, read-out: stability: percentage of material observed as intact prodrug, liver
[11] = plasma, 50 mg/kg, PLASMA, 30 min
[12] = plasma, 50 mg/kg, PLASMA, 30 min, read-out: stability: percentage of material observed as intact prodrug, plasma
[13] = plasma, 50 mg/kg, PLASMA, 120 min
[14] = plasma, 50 mg/kg, PLASMA, 120 min, read-out: stability: percentage of material observed as intact prodrug, plasma
[15] = small intestine, 50 mg/kg, SMALL INTESTINE, 30 min, read-out: stability: percentage of material observed as intact prodrug, small intestine
[16] = small intestine, 50 mg/kg, SMALL INTESTINE, 120 min, read-out: stability: percentage of material observed as intact prodrug, small intestine
[17] = spleen, 50 mg/kg, SPLEEN, 30 min, read-out: stability: percentage of material observed as intact prodrug, spleen
[18] = spleen, 50 mg/kg, SPLEEN, 120 min, read-out: stability: percentage of material observed as intact prodrug, spleen
[19] = tumor, 50 mg/kg, TUMOR, 30 min, read-out: stability: percentage of material observed as intact prodrug, tumor
[20] = tumor, 50 mg/kg, TUMOR, 120 min, read-out: stability: percentage of material observed as intact prodrug, tumor

concentration of prodrug in cecum ([1]; CECUM, 30 min) [nmol/g]	concentration of prodrug in kidney ([1]; KIDNEY, 30 min) [nmol/g]	concentration of prodrug in kidney ([1]; KIDNEY, 120 min) [nmol/g]	concentration of prodrug in large intestine ([1]; LARGE INTESTINE, 30 min) [nmol/g]	concentration of prodrug in large intestine ([1]; LARGE INTESTINE, 120 min) [nmol/g]	concentration of prodrug in liver ([1]; LIVER, 30 min) [nmol/g]	concentration of prodrug in liver ([1]; LIVER, 120 min) [nmol/g]	concentration of prodrug in small intestine ([1]; SMALL INTESTINE, 30 min) [nmol/g]	concentration of prodrug in spleen ([1]; SPLEEN, 30 min) [nmol/g]	concentration of prodrug in tumor ([1]; TUMOR, 30 min) [nmol/g]	remaining at 0.5 h [1, 3] [%]	remaining at 0.5 h [1, 5] [%]	remaining at 0.5 h [1, 7] [%]	remaining at 2 h [1, 8] [%]	remaining at 0.5 h [1, 9] [%]	remaining at 2 h [1, 10] [%]	concentration at 0.5 h [1, 11] [µM]	remaining at 0.5 h [1, 12] [%]	concentration at 2 h [1, 13] [µM]	remaining at 2 h [1, 14] [%]	Structure (SMILES)	other results
7.5	93.4	12.6	5.7	19.4	287.8	161.6	21.3	3.4	7.5	82	98	100	65	97	93	46.7	100	2	100	CN(Cc1cnc2nc(N)nc(N)c2n1)c1ccc(C(=O)N[C@@H](CCC(=O)O)C(=O)N[C@@H](CC(=O)O)C(=O)O)cc1 [Prodrug 6]	concentration of prodrug in cecum ([1]; CECUM, 120 min): 0.8 nmol/g; concentration of prodrug in feces ([1]; FECES, 30 min): 42 nmol/g; concentration of prodrug in feces ([1]; FECES, 120 min): 207 nmol/g; concentration of prodrug in small intestine ([1]; SMALL INTESTINE, 120 min): 14.2 nmol/g; concentration of prodrug in spleen ([1]; SPLEEN, 120 min): 0.0 nmol/g; concentration of prodrug in tumor ([1]; TUMOR, 120 min): 0.8 nmol/g; remaining at 2 h [1, 4]: 59%; remaining at 0.5 h ([1]; feces, 50 mg/kg, FECES, 30 min, read-out: stability: percentage of material observed as intact prodrug, feces (converted)): 21%; remaining at 2 h ([1]; feces, 50 mg/kg, FECES, 120 min, read-out: stability: percentage of material observed as intact prodrug, feces): 52%; remaining at 2 h [1, 6]: 98%; remaining at 0.5 h [1, 15]: 86%; remaining at 2 h [1, 16]: 54%; remaining at 0.5 h [1, 17]: 70%; remaining at 2 h [1, 18]: 0%; remaining at 0.5 h [1, 19]: 82%; remaining at 2 h [1, 20]: 59%
6.9	55.4	3.8	12.1	91.8	171.9	7.5	127.4	12.4	6.9	100	100	100	100	100	89	51.4	100	0.2	100	CN(Cc1cnc2nc(N)nc(N)c2n1)c1ccc(C(=O)N[C@@H](CCC(=O)O)C(=O)N[C@@H](Cc2ccccc2C(=O)O)C(=O)O)cc1 [Prodrug 7]	concentration of prodrug in cecum ([1]; CECUM, 120 min): 1.5 nmol/g; concentration of prodrug in small intestine ([1]; SMALL INTESTINE, 120 min): 24.1 nmol/g; concentration of prodrug in spleen ([1]; SPLEEN, 120 min): 1.0 nmol/g; concentration of prodrug in tumor ([1]; TUMOR, 120 min): 1.5 nmol/g; remaining at 2 h [1, 4]: 100%; remaining at 2 h [1, 6]: 100%; remaining at 0.5 h [1, 15]: 100%; remaining at 2 h [1, 16]: 97%; remaining at 0.5 h [1, 17]: 100%; remaining at 2 h [1, 18]: 100%; remaining at 0.5 h [1, 19]: 100%; remaining at 2 h [1, 20]: 100%
3.0	26.9	0.0	19.3	1.1	335.1	0.6	17.3	19.9	3.0	65	100	65.3	21.6	94.4	7.55	17.8	30.2	1.1	2.1	CN(Cc1cnc2nc(N)nc(N)c2n1)c1ccc(C(=O)N[C@@H](CCC(=O)O)C(=O)N[C@@H](Cc2ccccc2)C(=O)O)cc1 [Prodrug 10, N-(4-(((2,4-diamino-6-pteridinyl)methyl)methylamino)benzoyl)-L-glutam-1-yl-L-pheylalanine, reference compound]	substrate for wild type CPA (in words) [2]: good substrate; Km (268ala): 0.9 µM; kcat (268ala): 2 s⁻¹; Km (268gly): 0.3 µM; kcat (268gly): 2.2 s⁻¹; stability in vivo (in words) ([1]; mice, 50 mg/kg): not stable in vivo; remaining at 0.5 h [1, 15]: 16%; remaining at 2 h [1, 16]: 0%; remaining at 0.5 h [1, 17]: 80.4%; remaining at 0.5 h [1, 19]: 65%
